From patent publication US20190117630A1, “METHODS AND DRUG COMPOSITIONS FOR TREATING LYME DISEASE” (priority 2016, published 2019)
Counter-ions that a name gives are not always drawn.

Key:
Borrelia [1] = assay: Determination of Minimum Inhibitory Concentration (MIC); assay type: cell-based, B. burgdorferi; settings: Borreliella burgdorferi; 72 hours, lowest concentration with no motile spirochete by microscopy
Protocol: (§1) The Minimum Inhibitory Concentration (MIC) of the small molecules identified through screening was determined by culturing 10^6/ml Borrelia in BSK-II medium with different concentrations (0.3 μM to 160 μM) of drugs. For MIC, 1 ml cultures with respective drugs were grown in 48 well plates in triplicates, wrapped with paraffin film and placed for 72 hours at 33° C. in a humidified CO2 incubator (Forma Scientific, USA) having 5% CO2 and 95% air. Cell proliferation was assessed using bacterial counting chamber (Petroff-Hausser Counter, Horsham, Pa., USA) by phase contrast microscopy. In parallel cell proliferation was also assessed BacTiter-Glo™ Assay. The counting was performed in all the 25 squares of the central grid. The BacTiter-Glo™ Assay was performed by mixing 100 μl of culture in each well with 100 μl of BacTiter-Glo™ reagent (Promega, Madison, Wis., USA). Then, the assay was performed according to the manufacturer's instructions. Luminescence was measured on a Flex station3 micro-plate reader at luminescence 500 ms.
(§2) To confirm the efficacy of the screening MIC and MBC values were evaluated. The MIC is determined as the lowest concentration at which no motile spirochete is observed by microscopy. […] The MBC was determined by sub-culturing 20 μl of the Borrelia cultures grown at different drug concentrations in fresh BSK-II medium for 21 days. The MBC value was determined when no spirochete was observed microscopically in the culture.

Bb = settings: C3H mouse model, urinary bladders, heart, ear skin
Protocol: After the synergy was determined the efficacy of the drugs were studied in vivo in the following way: C3H/HeN mice of 4-6 week old were infected intradermally in the abdominal area with 0.1 ml of BSK-II medium containing 10^5 Bb with a 25G tuberculin syringe. […] Cultures were monitored up to 6 weeks for motile spirochetes using darkfield microscopy.
To evaluate the efficacy of the drugs in vivo, they were tested in a C3H mouse model.

Borrelia [2] = assay: Determination of Minimum Bactericidal Concentration (MBC); assay type: cell-based, B. burgdorferi; settings: Borreliella burgdorferi, 504 h; sub-culture in fresh BSK-II medium for 21 days, no spirochete observed
Protocol: For determining minimum bactericidal concentration (MBC), 20 μl of the 10^6/ml Borrelia cultures grown in BSK-II medium for 72 hours at different drug concentrations were added to the fresh BSK-II medium and sub-cultured for 3 weeks. After 3 weeks of incubation period, the samples were observed microscopically for motile spirochetes in the culture. The MIC and MBC determinations were done thrice independently.
as §2

[3] = test system: doxycycline-tolerant Borrelia persisters; assay: Eradication of doxycycline-tolerant Bb persisters; assay type: cell-based, B. burgdorferi; settings: 5 days, after doxycycline 2.5 μM to 40 μM for 3 days, FIG. 3B
Protocol: So to identify the drugs that kill drug-tolerant Borrelia persisters, 10^6/ml Borrelia in BSK-II medium was treated with concentrations of doxycycline ranging from 2.5 μM to 40 μM for 3 days. The doxycycline-tolerant persisters were treated with 20 μg and 40 μg Azlocillin for 5 days. After 5 days of treatment, the cultures were pelleted, washed and plated on semisolid BSK-II agarose plates for minimum 21 days. The plates were incubated for regrowth and colonies are counted. The study was performed thrice independently.

Borrelia isolate CA8 Bss = assay: Time-kill studies; assay type: cell-based, B. burgdorferi sensu stricto; settings: 1.25 μM, CA8 strain
Protocol: Time-kill studies were performed with Borrelia isolate CA8 Bss with azlocillin sodium and cefotaxime acid. To determine the rate of antimicrobial activity, 10^6/ml Borrelia cultures were grown in BSK-II medium with drugs at different concentrations. BSK-II medium with no drugs is used as a control. The antibacterial activity was determined by counting bacteria at 24 hours, 48 hours and 72 hours. The experiment was done once with triplicates.

Borrelia cultures = assay: Secondary screening, Borrelia cell viability by BacTiter-Glo Assay; assay type: cell-based, B. burgdorferi; settings: for efficacy (Borrelia cell viability assay): at 0.31 μM, FIG. 1B
Protocol: FIG. 1 depicts a Borrelia cell viability assay using agents (A) tetraethylthiuram disulfide, doxorubicin hydrochloride, and epirubicin hydrochloride and (B) azlocillin sodium and cephalothin sodium. The results represent mean±SD.
as §1
The viability of Borellia cultures was evaluated with BacTiter-Glo™ Assay.

With `Cc1nnc(SCC2=C(C(=O)O)N3C(=O)[C@@H](NC(=O)Cn4cnnn4)[C@H]3SC2)s1` [Cefazolin sodium] the MIC (Borrelia [1]) was ≤ 3 µM.
`CO/N=C(\C(=O)N[C@@H]1C(=O)N2C(C(=O)O)=C(COC(C)=O)CS[C@H]12)c1csc(N)n1` [Cefotaxime acid] was tested, and the “elimination of Borrelia infection in vivo (failure to culture live spirochetes from tissues after treatment)” value (Bb) was “very effective in eliminating Borrelia infection”, the MBC (Borrelia [2]) was ≤ 10 µM and the “elimination of doxycycline-tolerant Borrelia persisters” value ([3]; 40 μg) was “killed the Borrelia persisters completely”. The MIC (Borrelia [1]) was ≤ 3 µM and the “decrease of initial Borrelia inoculum, time-kill” value (Borrelia isolate CA8 Bss) was 1 log10-unit.
In the case of `CCN(CC)C(=S)SSC(=S)N(CC)CC` [Tetraethylthiuram disulfide], the MBC (Borrelia [2]) is reported as ≤ 10 µM, the “concentration showing complete Borrelia cell inhibition” value (Borrelia cultures; BacTiter-Glo Assay, FIG. 1A) is reported as 1.25 µM and the MIC (Borrelia [1]) is reported as ≤ 3 µM.
For `CO[C@@H]1[C@@H](O[C@@H]2O[C@H](C)[C@@H](O[C@H]3C[C@@](C)(O)[C@@H](OC(=O)CC(C)C)[C@H](C)O3)[C@H](N(C)C)[C@H]2O)[C@@H](CC=O)C[C@@H](C)[C@@H](O)/C=C/C=C/C[C@@H](C)OC(=O)C[C@H]1O` [leucomycin], the MBC (Borrelia [2]) was ≤ 10 µM.
For `CC(=O)OCC1=C(C(=O)O)N2C(=O)[C@@H](NC(=O)Cc3cccs3)[C@H]2SC1` [Cephalothin sodium], the “efficacy (Borrelia cell viability assay)” value (Borrelia cultures) was ~99% and the MIC (Borrelia [1]) was ≤ 3 µM.
For `COc1cccc2c1C(=O)c1c(O)c3c(c(O)c1C2=O)C[C@@](O)(C(=O)CO)C[C@@H]3O[C@H]1C[C@H](N)[C@H](O)[C@H](C)O1` [Doxorubicin hydrochloride], the MBC (Borrelia [2]) was < 1.5 µM, the “concentration uniformly effective against Bb” value (Borrelia cultures; BacTiter-Glo Assay, FIG. 1A) was 0.625 µM and the MIC (Borrelia [1]) was < 1 µM.
In the case of `COc1cccc2c1C(=O)c1c(O)c3c(c(O)c1C2=O)C[C@@](O)(C(=O)CO)C[C@@H]3O[C@H]1C[C@H](N)[C@@H](O)[C@H](C)O1` [Epirubicin hydrochloride], the MBC (Borrelia [2]) is reported as < 1.5 µM, the “concentration uniformly effective against Bb” value (Borrelia cultures; BacTiter-Glo Assay, FIG. 1A) is reported as 0.625 µM and the MIC (Borrelia [1]) is reported as < 1 µM.
With `CC(=O)[C@]1(O)Cc2c(O)c3c(c(O)c2[C@@H](O[C@H]2C[C@H](N)[C@H](O)[C@H](C)O2)C1)C(=O)c1ccccc1C3=O` [Idarubicin HCl] the MBC (Borrelia [2]) was ≤ 10 µM.
For `CC1(C)S[C@@H]2[C@H](NC(=O)[C@H](NC(=O)N3CCNC3=O)c3ccccc3)C(=O)N2[C@H]1C(=O)O` [Azlocillin sodium], the “elimination of Borrelia infection in vivo (failure to culture live spirochetes from tissues after treatment)” value (Bb) was “very effective in eliminating Borrelia infection”, the MBC (Borrelia [2]) was ≤ 10 µM and the “elimination of doxycycline-tolerant Borrelia persisters” value ([3]; 20 μg) was “completely eliminated”. For the same compound, the “elimination of doxycycline-tolerant Borrelia persisters” value ([3]; 40 μg) was “completely eliminated”, the “efficacy (Borrelia cell viability assay)” value (Borrelia cultures) was ~99% and the MIC (Borrelia [1]) was ≤ 3 µM.
With `CC(=O)NC[C@H]1CN(c2ccc(N3CCOCC3)c(F)c2)C(=O)O1` [Linezolide] the MIC (Borrelia [1]) was ≤ 3 µM.
